The values below come from article PMC4204617 (Frontiers in Cellular Neuroscience, 2014).

Entries after “also recorded” stand apart in the source; their conditions may differ. Where no end group is shown, it is not given here.

The subject of data set [1] is hemichannels. The settings on record: cited from earlier work; for Hemichannel-only effect: ref not given. The source says:
Gap junction channels form junctional plaques that are composed of two docked hemichannels oligomerized from six Cx protein subunits. […] Stehberg and collaborators have used TAT-L2 for local injection in the amygdala in in vivo animal studies on fear memory (Stehberg et al., [2012]).

Data set [2] in a line: Brain TAT immunostaining 1 h after intra-carotid injection. Type of data set: in vivo, mouse (C57Bl6). The procedure: Two different approaches were used for in vivo delivery of TAT-Gap19. For acute experiments, 4 months old C57Bl6 male mice were subjected to intra-carotid injection of 45 mg/kg TAT-Gap19 (GenScript, Pistcataway, NJ, US) dissolved in saline. After 1 h the mice were deeply anesthetized with sodium pentobarbital (120 mg/kg intraperitoneally) and were transcardially perfused with cold ice phosphate-buffered saline (PBS) followed by perfusion with 10% formalin (Sigma-Aldrich, Oakville, Canada). Brains were removed and stored in 10% formalin and the next day were cryoprotected in 30% sucrose in PBS solution. Cortical brain sections, 10 μm thick, were collected and mounted sequentially on glass microscope slides. Immunohistochemistry was performed on the sections as previously described (Ozog et al., [2002]; Nakase et al., [2004]; Kozoriz et al., [2010]). Ten μm thick glass mounted sections were rehydrated in PBS and then blocked in PBS pH 7.4 containing 0.3% Triton-X-100 (TX100, Fisher Scientific) and 2% bovine serum albumin (BSA; Invitrogen, Canada) for 1 h, and incubated overnight in PBS containing 1.0% BSA, 0.3% TX100 and anti-TAT primary antibody (1/100 dilution; Cat # CB0888, Cell Applications, Inc., USA). The following day, the slices were washed with PBS (3 × 10 min) and subsequently incubated for 1 h with secondary antibody (anti-mouse IgG tagged with Alexa 488; Molecular Probes, USA) in PBS containing 1% BSA, 0.3% TX100. Slices were then rinsed 3 times for 10 min with PBS and mounted with ProLong Gold antifade reagent with DAPI. Images were obtained using the same exposure times on a Ziess Axiophot Epifluorescent microscope, Zeiss Canada, Toronto).

The target of data set [3] is T1, Cx43 hemichannels (Mus musculus, UniProt P23242). The data set can be described thus: Etd+ uptake in astrocytes of acute hippocampal slices, Ca2+-free solution. Type of data set: cell-based, mouse (GFAP-eGFP). Set-up: performing the Etd^+ uptake assay in acute hippocampal brain slices from GFAP-eGFP transgenic mice; from tissue; host or cells: acute hippocampal slices of GFAP-eGFP mice (GFP-positive astrocytes). The settings on record: zero extracellular Ca2+, "in the 250 μM range", read-out: Half-maximal effect concentration, zero extracellular Ca2+ in brain slices. How it is done:
GFAP-eGFP mice (Nolte et al., [2001]) were decapitated and their brains were rapidly removed. Hippocampi were dissected and placed in ice-cold artificial cerebrospinal fluid (ACSF) equilibrated with 95% O2–5% CO2. Transverse hippocampal slices (300–400 μm thick) were cut on a vibroslicer (Leica VT 1000S, Wetzlar, Germany) and transferred to a holding chamber where they rested on a nylon mesh, submerged in oxygenated ACSF at room temperature for a stabilization period of 45 min before recodings. The ACSF solution contained in mM: NaCl 134; KCl 2.8; NaHCO3 29; NaH2PO4 1.1; glucose 12; MgSO4 1.5; CaCl2 2.5.
In slices derived from GFAP-eGFP mice, astrocytes were identified by GFP fluorescence and hemichannel activity was investigated. […] In order to be sure that we were quantifying Etd^+ uptake in astrocytes, in this study hemichannel activity was only considered in GFP-positive cells. […] Fluorescence was quantified in arbitrary units (AU), Image J program (NIH software). Dye uptake intensity was evaluated as the difference (F—F0) between the fluorescence (F) from astrocytes (20—30 cells per slice) and the background fluorescence (F0) measured in the same field where no labeled cells were detected. […]
The data are expressed as mean ± s.e.m., with “n” denoting the number of independent experiments. […]

Data set [4] addresses T1, Cx43 hemichannels. The data set can be described thus: Etd+ uptake in cultured astrocytes treated with TNF-α/IL-1β. Type of data set: cell-based, mouse (OF1). Set-up: endogenous in cells; host or cells: primary cortical astrocytes from newborn OF1 mice. The settings on record: astrocyte cultures, "in the 250 μM range", read-out: Half-maximal effect concentration, hemichannels opened with TNF-α/IL-1β. The procedure: (§1) Primary astrocyte cultures were prepared from the cortex of newborn (1–2 days) OF1 mice as described previously (Meme et al., [2006]). Briefly, cells were seeded into 100-mm diameter plastic dishes (Nunc, Roskilde, Denmark) at the density of 3 × 10^6 cells/dish in DMEM (Sigma-Aldrich, St-Louis MO, USA), supplemented with penicillin (5 U/ml), streptomycin (5 μg/ml) (Invitrogen, Carlsbad, CA, USA) and 10% FCS (Hyclone, Logan, UT, USA). The medium was changed twice a week. When cells reached confluence, around 10 days in vitro (DIV), they were harvested with trypsin-EDTA (Invitrogen). […]
Hemichannel activity in cultured astrocytes was induced either by treatment with two pro-inflammatory cytokines, TNF-α and IL-1β (Retamal et al., [2007]) or by exposing the cells to a Ca^2+-free solution (Stout et al., [2002]). […] Captured images of Etd^+ uptake were analyzed with the Image J program (NIH software).
(§2) The data are expressed as mean ± s.e.m., with “n” denoting the number of independent experiments. […] In experiments where the effects of different treatments were assessed on normalized data, non-parametric ANOVA Kruskal-Wallis tests were performed. […] Unless stated otherwise, significance as compared to control condition based on the raw data (before normalization) was assessed by two-tailed Wilcoxon signed-ranked tests. […]

In data set [5] the target is T1, Cx43 hemichannels. Briefly: Glutamate-triggered ATP release in cultured cortical astrocytes. Type of data set: cell-based, mouse (OF1). Also on record: endogenous in cells; host or cells: primary cortical astrocytes from newborn OF1 mice. The following applies: primary cortical astrocyte cultures; glutamate 100 μM, 15 min; Gap19 30 min pre-incubation; n = 6 independent experiments; read-out: IC50 / half-maximal effect concentration for glutamate-triggered ATP release. How it is done:
as §1, §2
While in vivo astrocytes express two major Cxs, Cx43 and Cx30, astrocytes in primary culture offer the advantage that only one of them is expressed, namely Cx43 (Giaume et al., [1991a]). Indeed, Cx30 is detected in astrocytes only either after 10–11 weeks of solo-culture (Kunzelmann et al., [1999]) or in 3 week-old astrocytes after 1 week of co-culture with neurons (Koulakoff et al., [2008]). […]

The target in data set [6] is Gap19 (UniProt P17302). The following applies: cited from earlier work.
Gap19, sequence (P17302 whole entry, looked up, the tested form may be a part): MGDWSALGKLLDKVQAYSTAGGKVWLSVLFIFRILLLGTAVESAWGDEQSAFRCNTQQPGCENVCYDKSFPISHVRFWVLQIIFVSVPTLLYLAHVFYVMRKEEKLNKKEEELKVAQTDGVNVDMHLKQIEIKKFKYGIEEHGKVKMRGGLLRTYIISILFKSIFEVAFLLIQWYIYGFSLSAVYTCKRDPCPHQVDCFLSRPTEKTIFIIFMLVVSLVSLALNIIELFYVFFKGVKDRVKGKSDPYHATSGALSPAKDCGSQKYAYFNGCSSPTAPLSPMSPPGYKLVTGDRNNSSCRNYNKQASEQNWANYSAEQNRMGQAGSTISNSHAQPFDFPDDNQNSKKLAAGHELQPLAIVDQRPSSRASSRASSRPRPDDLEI
In data set [7] the test system is Cx43 hemichannels in astrocytes. The settings on record: hippocampal slices; ref Rouach et al., 2008, Supplementary Data Figure S5; cited from earlier work. How it is done: The inhibitory effect of Gap19 in situ was then tested by performing the Etd^+ uptake assay in acute hippocampal brain slices from GFAP-eGFP transgenic mice. […] This increase ... || Gap19 is a peptide that corresponds to a sequence on the cytoplasmic loop (CL) of Cx43. Its sequence is part of the L2 domain that is involved in interactions of the CL with the CT-tail of Cx43. […] This differential effect is most probably the consequence of distinct channel configurations of hemichannels as compared ...

T1 sequence (P23242 whole entry): as the sequence (P17302 whole entry, looked up, the tested form may be a part) above, with D124E, I164V, K243R, S251T, A253P, A257S, Q263P, N341S, S344A, L347V counted along it
Connexin43 C-terminal tail, sequence (P17302 232-382): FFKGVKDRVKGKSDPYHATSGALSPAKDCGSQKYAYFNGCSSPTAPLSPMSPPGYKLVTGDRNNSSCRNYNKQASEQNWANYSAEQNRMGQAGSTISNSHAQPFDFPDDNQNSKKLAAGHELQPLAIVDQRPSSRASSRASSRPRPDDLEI

On to `[La+3]` [lanthanum (La^3+), lanthanum], for which, in data set [1], the Hemichannel-only effect entry is recorded as “supposed to affect only hemichannels”.

Turning to “YGRKKRRQRRRKQIEIKKFK [TAT-Gap19, YGRKKRRQRRR-KQIEIKKFK]”, in data set [2] (45 mg/kg intra-carotid, 4 months old male mice, 1 h, anti-TAT antibody, compared with vehicle (PBS)), the “TAT immunoreactivity in brain, 1 h after carotid injection” value is reported as “readily detected throughout the brain; also recorded: clear TAT immunoreactivity”. Further, in data set [2] (45 mg/kg intra-carotid, 1 h, cortex), the “TAT peptide in GFAP-positive astrocytes (double labeling anti-TAT/anti-GFAP)” value was “some GFAP-positive astrocytes (white arrows) have taken up the TAT peptide; also recorded: reaches GFAP-positive astrocytes, however, several TAT-positive cells are apparently not GFAP-positive”. Moreover, the Blood-brain barrier crossing result in data set [2] (in vivo injection, immunostaining for TAT moiety, intra-carotid and i.v. experiments taken together) is “traverses the blood-brain barrier and is retained in the cells; also recorded: can successfully cross the blood-brain barrier”.

KQIEIKKFK [Gap19, KQIEIKKFK]: the IC50 is approximately 250 µM in data set [3], approximately 250 µM in data set [4] and 142 µM in data set [5].

Consider `[Gd+3]` [gadolinium (Gd^3+), gadolinium], for which the Hemichannel-only effect entry in data set [1] is recorded as “supposed to affect only hemichannels”.

The Kd is the constant that tells how readily two partners part at equilibrium. As to “Connexin43 C-terminal tail (from UniProt P17302)”, the Kd in data set [6] is 2.5 µM.

For `CC1(C)[C@@H](OC(=O)CCC(=O)O)CC[C@]2(C)[C@H]3C(=O)C=C4[C@@H]5C[C@@](C)(C(=O)O)CC[C@]5(C)CC[C@@]4(C)[C@]3(C)CC[C@@H]12` [carbenoxolone], the “Discrimination between gap junctions and hemichannels” value in data set [1] (ref not printed at this statement (nearby: Takeuchi et al., 2011)) was “poorly discriminate between gap junctions and hemichannels”. In addition, the “Block of hemichannel activity induced by calcium-free solution” value in data set [7] is given as “can be inhibited by carbenoxolone in hippocampal slices; also recorded: blocks hemichannel activity induced by a calcium free solution”.
